Data reported in patent US20220226484A1, “THERAPEUTIC PEPTIDES” (COHBAR, INC., priority 2019, published 2022).
Positions of bridges follow the written chain, without caps; N, C: chain ends. Non-standard residues stand in square brackets, D forms with d. Primed or numbered codes have the meaning given here. Chains are numbered I, II in the order given. No end group written: not given here. PEG12′ = not defined here

Assays:
A172 Cells = experiment: Cell viability, PrestoBlue Assay; type: cell-based, human; conditions: peptide 10 μM, 18-20 hours, relative to 0.1% DMSO control
Protocol: The effect of the peptides on cell viability can be assessed in cultured cells using suitable assay of viability such as the PrestoBlue® assay (Thermo Fisher Scientific, Waltham, Mass.). Peptides were initially prepared as 10 mM stock in DMSO and tested at a final concentration of 10 μM (0.1% DMSO). […] PrestoBlue Assay Reagent was purchased from Thermo Fisher Scientific. A172 human brain glioblastoma cell line was purchased from American Type Culture Collection (Manassas, Va.). A172 cells were grown in DMEM supplemented with 10% FBS with 100 IU/ml penicillin and 100 μg/ml streptomycin. Cultures were maintained at 37° C. in a humidified atmosphere of 5% CO2/95% air. A172 cells were seeded at 8,000 cells per well on 96-well plates. […] Cell viability was determined using a PrestoBlue Assay reagent […] according to the manufacturer's instructions. Absorption for each sample well on the plate was measured using a Cytation 3 plate reader at 560 nm and 590 nm (BioTek, Winooski, Vt.). Activity was calculated relative to 0.1% DMSO untreated control. Treatment with 0.1% DMSO alone was used as the cell viability activity control. The relative standard deviation of the DMSO control was <5%.

[1] = test system: SH-SY5Y Neuroblastoma Cells Exposed to Staurosporine; experiment: ATP levels in cells exposed to staurosporine; type: cell-based, human; conditions: peptide 10 μM with staurosporine, 18-20 hours; <100% cytoprotective, >100% synergistic
Protocol: Peptides were initially prepared as 10 mM stock in DMSO and tested at a final concentration of 10 μM (0.1% DMSO). […] […] CellTiter-Glo® Assay kit was purchased from Promega. SH-SY5Y human neuroblastoma cell line was purchased from American Type Culture Collection (Manassas, Va.) and licensed from Memorial Sloan-Kettering Cancer Center (New York, N.Y.). SH-SY5Y cells were grown in DMEM/F12 medium supplemented with 10% FBS with 100 IU/ml penicillin and 100 μg/ml streptomycin. Cultures were maintained at 37° C. in a humidified atmosphere of 5% CO2/95% air. SH-SY5Y cells were seeded at 30,000 cells per well on 96-well plates. […] ATP levels were determined using a CellTiter-Glo Assay kit (Promega) according to the manufacturer's instructions. Luminescence for each sample well on the plate was measured using a Cytation 3 plate reader (BioTek, Winooski, Vt.). […] A value less than 100% is indicative of a cytoprotective effect, while a value greater than 100% is indicative of a synergistic effect on viability.

C2C12 Mouse Myoblasts = experiment: Glucose utilization; type: cell-based; conditions: peptide 10 μM, 18-22 hours, relative to 0.1% DMSO treated control
Protocol: The effect of the peptides on glucose metabolism can be assessed using an assay of glucose utilization in cultured cultured cells such as mouse myoblasts. Peptides were initially prepared as 10 mM stock in DMSO and used at a final concentration of 10 μM (0.1% DMSO). C2C12 mouse myoblast cell line was purchased from American Type Culture Collection (Manassas, Va.). C2C12 cultures were maintained at 37° C. in a humidified atmosphere of 5% CO2/95% air with medium changes every second day. C2C12 cells were grown in DMEM (1 g/L glucose) supplemented with 10% FBS with 100 IU/ml penicillin and 100 μg/ml streptomycin. C2C12 cells were seeded at 7,000 cells per well on 96-well plates and cultured to confluence. Once the cell reached confluence the media was changed to DMEM (1 g/L glucose) supplemented with 2% HS with 100 IU/ml penicillin and 100 μg/ml streptomycin and maintained at 37° C. in a humidified atmosphere of 5% CO2/95% air. 5 days post-induction of differentiation fresh DMEM (1 g/L glucose) supplemented with 2% HS with 100 IU/ml penicillin and 100 μg/ml streptomycin was added to cultures. Cells were maintained at 37° C. in a humidified atmosphere of 5% CO2 and 95% air for 5 hours. After 5 hours test peptides at 10 μM or controls (0.5 mM or 1 mM metformin in 1% DMSO) prepared in fresh differentiation medium were added to cells and the cultures were maintained at 37° C. in a humidified atmosphere of 5% CO2/95% air for 18-22 hours. At the end of the incubation culture media was removed from the cells and the remaining glucose concentration was measured using a Glucose Assay kit (Abcam) according to the manufacturer's instructions, using a Cytation 3 plate reader at 570 nm (BioTek, Winooski, Vt.). Glucose concentrations in the medium were calculated relative to 0.1% DMSO treated control cells. The relative standard deviation of the result for the 0.1% DMSO treated control was <20%. Metformin was used as a positive control for reduction of glucose levels (increased glucose utilization glucose levels for treatment with metformin (1 mM) treatment were <20% of the 0.1% DMSO treated control value. The results are reported in Table 7.

[2] = test system: WI-38 cells (human fetal lung fibroblast cells); experiment: Fibroblast-to-myofibroblast transition assay, pro-collagen I alpha 1 expression; type: cell-based; conditions: 10 μM peptide and 5 ng/ml TGF-β, 48 h, cell lysates
Protocol: The effect of the peptides on fibrosis can be assessed in vitro using a fibroblast-to-myofibroblast transition (FMT) assay and monitoring pro-collagen I alpha 1 expression produced by cultured cells such as human fetal lung fibroblast cells. Peptides were initially prepared as 10 mM stock solutions in DMSO or 1 mM stock in H2O and were used at a final concentration of 10 μM (0-0.1% DMSO). Transforming Growth Factor beta (TGF-β) was used as a potent inducer of FMT as measured by increased pro-collagen I alpha 1 expression. Human WI-38 cell line was purchased from American Type Culture Collection (Manassas, Va.). WI-38 cells were seeded in complete medium (DMEM/high glucose (4 g/L)+10% Fetal Bovine Serum+1% penicillin/streptomycin) at 40,000 cells/well on 48-well plates and placed at 37° C. in a humidified atmosphere of 5% CO2/95% air. The next day, the medium was removed, cells were rinsed twice with HBSS, and the medium replaced with Serum Restricted Medium (DMEM/high glucose (4 g/L)+0.2% Fetal Bovine Serum+1% penicillin/streptomycin). The cultures were placed at 37° C. in a humidified atmosphere of 5% CO2/95% air overnight. Following 24 h in Serum Restricted Medium, the medium was removed, and the following was added: fresh Serum Restricted Medium alone (no TGF-β control); fresh Serum Restricted Medium containing 5 ng/ml TGF-β (TGF-β control); or fresh Serum Restricted Medium containing 10 μM peptide and 5 ng/ml TGF-β. Cells were incubated for 48 h at 37° C. in a humidified atmosphere of 5% CO2/95% air, washed twice with cold HBSS and immediately lysed. Lysis and determination of pro-collagen I alpha 1 concentrations in the cell lysates were performed using a Pro-Collagen I Alpha 1 ELISA kit (Abcam; Cambridge, Mass.) according to the manufacturer's instructions; absorbance was measured using a Cytation 3 plate reader at 450 nm (BioTek, Winooski, Vt.).

Substance	PrestoBlue Assay, Percent of Control Activity (A172 Cells)	Percent of ATP Reduction Induced by Control [1]	Glucose Utilization (glucose in medium), Percent of Untreated Control (C2C12 Mouse Myoblasts)	Procollagen I Alpha 1 Mean (SEM) [2]
MRVIRMCLGVGLLGDLAG [SEQ ID NO: 2]	100.0%	104.8%	110.9%	–
RVIRMCLGVGLLGDL(dA)G (RVIRMCLGVGLLGDL[dA]G) [SEQ ID NO: 4]	97.7%	104.1%	107.3%	–
RVIRMCLGVGLLGDLAG [SEQ ID NO: 3]	98.9%	108.4%	108.0%	–
RVIRMCLGVGLLGDLAGK{PEG12} (chain 1 RVIRMCLGVGLLGDLAGK(PEG12′); chain 2 RVIRMCLGVGLLGDLAGK(PEG12′); disulfide I:6-II:6) [SEQ ID NO: 28]	–	–	–	1830 (507) pg/mL
RVIRMCLNVGLLGEL(dA)G [SEQ ID NO: 5] (RVIRMCLNVGLLGEL[dA]G)	96.9%	108.0%	111.2%	4200 (597) pg/mL
RVIRMCLNVGNLGEL(dA)G (RVIRMCLNVGNLGEL[dA]G) [SEQ ID NO: 10]	–	–	–	4460 (235) pg/mL
